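Protocol summary: plate cells (96-well), add compound at 5 concentrations, incubate 48 h, interpolate endpoints linearly. At the GI50, growth is halved.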 The source made the active and inactive calls. No stated cut-off is given here; in the data, active = GI50 up to about 1.1 µM and inactive = higher. Where a SMILES comes first, the peptide text is derived from it. The star is where a group is joined. Cbz = O=C(OCc1ccccc1)*; Bn = c1ccc(C*)cc1
Tests used:
Experiment in all cases: NCI-60 cell line screen, 48 h
SK-MEL-28 = test system: SK-MEL-28
RPMI-8226 = test system: RPMI-8226
IGROV-1 = test system: IGROV-1
NCI/ADR-RES = test system: NCI/ADR-RES
HOP-62 = test system: HOP-62
HOP-92 = test system: HOP-92
A498 = test system: A498
SW-620 = test system: SW-620
MOLT-4 = test system: MOLT-4
Malme-3M = test system: Malme-3M
OVCAR-4 = test system: OVCAR-4
SK-MEL-5 = test system: SK-MEL-5
SF-295 = test system: SF-295
OVCAR-5 = test system: OVCAR-5
U-251 = test system: U-251
SF-268 = test system: SF-268
EKVX = test system: EKVX
UO-31 = test system: UO-31
HCT-116 = test system: HCT-116
TK-10 = test system: TK-10

SMILES	GI50 (SK-MEL-28)	GI50 (RPMI-8226)	GI50 (IGROV-1)	GI50 (NCI/ADR-RES)	GI50 (HOP-62)	GI50 (HOP-92)	GI50 (A498)	GI50 (SW-620)	GI50 (MOLT-4)	GI50 (Malme-3M)	GI50 (OVCAR-4)	GI50 (SK-MEL-5)	GI50 (SF-295)	GI50 (OVCAR-5)	GI50 (U-251)	GI50 (SF-268)	GI50 (EKVX)	GI50 (UO-31)	GI50 (HCT-116)	GI50 (TK-10)
C/C=C/c1cc2c(c(=O)o1)C(=O)[C@@H](O)[C@H](C)O2	15 µM (inactive)	4.09 µM (inactive)	8.32 µM (inactive)	15.9 µM (inactive)	26.5 µM (inactive)	16.9 µM (inactive)	12 µM (inactive)	11 µM (inactive)	9.71 µM (inactive)	17.3 µM (inactive)	15.4 µM (inactive)	15 µM (inactive)	21 µM (inactive)	17.2 µM (inactive)	17.6 µM (inactive)	13 µM (inactive)	17.2 µM (inactive)	19.7 µM (inactive)	7.8 µM (inactive)	–
C=CC[N+](CCO)(CCO)CCCCCCCCCCCCCCCCCC	12.9 µM (inactive)	2.25 µM (inactive)	1.97 µM (inactive)	23.5 µM (inactive)	6.38 µM (inactive)	1.5 µM (inactive)	15.6 µM (inactive)	6.24 µM (inactive)	1.61 µM (inactive)	14.8 µM (inactive)	3.88 µM (inactive)	8.13 µM (inactive)	4.41 µM (inactive)	14 µM (inactive)	1.97 µM (inactive)	3.33 µM (inactive)	17 µM (inactive)	9.62 µM (inactive)	3.4 µM (inactive)	–
COc1cc(OC)c2nc(C)c3c(c2c1)OCC3	> 100 µM (inactive)	> 100 µM (inactive)	> 100 µM (inactive)	> 100 µM (inactive)	37.7 µM (inactive)	40.6 µM (inactive)	> 100 µM (inactive)	> 100 µM (inactive)	> 100 µM (inactive)	> 100 µM (inactive)	> 100 µM (inactive)	> 100 µM (inactive)	34 µM (inactive)	> 100 µM (inactive)	35 µM (inactive)	47.2 µM (inactive)	75.2 µM (inactive)	> 100 µM (inactive)	80.7 µM (inactive)	> 100 µM (inactive)
COC(=O)C(Cc1ccc(O)cc1)NC(=O)C(COCc1ccccc1)NC(=O)OCc1ccccc1 (stereo not drawn) (Cbz-Ser(Bn)-Tyr-OMe; configuration not given here)	20.9 µM (inactive)	74.6 µM (inactive)	17.6 µM (inactive)	19.6 µM (inactive)	19 µM (inactive)	25.5 µM (inactive)	26.3 µM (inactive)	18.8 µM (inactive)	> 100 µM (inactive)	21.3 µM (inactive)	19.4 µM (inactive)	17 µM (inactive)	16.5 µM (inactive)	19.8 µM (inactive)	18.7 µM (inactive)	17.5 µM (inactive)	22.5 µM (inactive)	21.9 µM (inactive)	20.9 µM (inactive)	20 µM (inactive)
Nc1c2c(=O)[nH]c(=O)c2c(N)c2c(=O)c3ccccc3c(=O)c12	2.03 µM (inactive)	2.05 µM (inactive)	1.65 µM (inactive)	2.11 µM (inactive)	3.13 µM (inactive)	12.9 µM (inactive)	1.12 µM (inactive)	1.69 µM (inactive)	3.68 µM (inactive)	0.222 µM (active)	1.21 µM (inactive)	0.179 µM (active)	1.59 µM (inactive)	1.82 µM (inactive)	3.61 µM (inactive)	2.65 µM (inactive)	3.17 µM (inactive)	3.81 µM (inactive)	4.6 µM (inactive)	9.68 µM (inactive)
CCCCN(CC)c1nc(C)nc2c1c(C)c(C)n2-c1c(C)cc(C)cc1C [ANTALARMIN]	15.8 µM (inactive)	7.87 µM (inactive)	14.5 µM (inactive)	13.6 µM (inactive)	17.2 µM (inactive)	9.35 µM (inactive)	16.9 µM (inactive)	15.7 µM (inactive)	10.9 µM (inactive)	15.9 µM (inactive)	16.3 µM (inactive)	5.21 µM (inactive)	14.3 µM (inactive)	15.3 µM (inactive)	11.7 µM (inactive)	17.4 µM (inactive)	14.2 µM (inactive)	14.7 µM (inactive)	10.1 µM (inactive)	17.4 µM (inactive)
